Measured values: publication PMC7488365 (Acta Pharmaceutica Sinica. B, 2019)
Like-named read-outs stand apart in the source and are kept apart here.

Tests used:
[1] = target: T1, USP28 (Homo sapiens, UniProt Q96RU2); test: biochemical; assay type: biochemical; conditions: for inhibition at 12.5 µM: read-out: Inhibition rate at 12.5 μmol/L (%); for Inhibition rate at 12.5 μmol/L (%): 12.5 μmol/L compound, Ub-AMC substrate
T1 sequence (Q96RU2 1-700): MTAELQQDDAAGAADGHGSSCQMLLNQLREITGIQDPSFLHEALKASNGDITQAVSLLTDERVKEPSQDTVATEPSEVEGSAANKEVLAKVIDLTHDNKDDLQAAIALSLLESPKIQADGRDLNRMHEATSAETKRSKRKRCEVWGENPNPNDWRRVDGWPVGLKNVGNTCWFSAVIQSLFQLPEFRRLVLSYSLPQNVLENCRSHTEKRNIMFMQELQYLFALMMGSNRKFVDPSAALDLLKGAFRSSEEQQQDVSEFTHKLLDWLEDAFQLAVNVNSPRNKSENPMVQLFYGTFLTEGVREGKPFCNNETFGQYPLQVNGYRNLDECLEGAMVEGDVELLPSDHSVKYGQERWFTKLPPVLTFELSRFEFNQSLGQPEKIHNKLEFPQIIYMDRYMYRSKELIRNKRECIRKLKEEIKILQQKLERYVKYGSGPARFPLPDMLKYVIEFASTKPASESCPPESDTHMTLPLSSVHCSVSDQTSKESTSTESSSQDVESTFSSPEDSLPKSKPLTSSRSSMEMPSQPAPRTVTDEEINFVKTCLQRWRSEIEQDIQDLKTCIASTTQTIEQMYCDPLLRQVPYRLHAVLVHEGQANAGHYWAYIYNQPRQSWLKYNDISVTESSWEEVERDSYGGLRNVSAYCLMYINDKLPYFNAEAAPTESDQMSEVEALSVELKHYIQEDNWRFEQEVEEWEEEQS

[2] = target: T1, USP28; conditions: read-out: EC50 USP28 inhibition; cited from earlier work
[3] = target: T1, USP28; test: Bio-layer interferometry; assay type: binding
[4] = tested on: MGC-803 cells; test: cells; conditions: Homo sapiens, MGC-803, 72 h, read-out: IC50 cell viability MGC-803
[5] = tested on: GES-1 cells; test: cells; conditions: Homo sapiens, GES1, 72 h, read-out: IC50 cell viability GES-1
[6] = tested on: HGC-27 cells; test: MTT cell viability assay, HGC-27; conditions: Homo sapiens, HGC-27, 72 h, read-out: IC50 cell viability HGC-27
[7] = tested on: MKN45 cells; test: cells; conditions: Homo sapiens, MKN-45, 72 h, read-out: IC50 cell viability MKN45
[8] = tested on: USP28, LSD1 and total c-Myc in HGC-27 cells; test: Western blotting of USP28, LSD1 and total c-Myc; assay type: cell-based, human; conditions: HGC-27, 3 h, even at 40 μmol/L

CCCSc1nc(NCCN)c2nnn(Cc3ccc(Br)cc3)c2n1 [Compound 18, N^1-(3-(4-Bromobenzyl)-5-(propylthio)-3H-[1,2,3]triazolo[4,5-d]pyrimidin-7-yl)ethane-1,2-diamine]
IC50 [1]: 6 ± 0.05 µM
inhibition at 12.5 µM [1]: 76.7%

CCCSc1nc(NCCNC(C)=O)c2nnn(Cc3ccc(Cl)cc3)c2n1 [Compound 20, N-(2-((3-(4-Chlorobenzyl)-5-(propylthio)-3H-[1,2,3]triazolo[4,5-d]pyrimidin-7-yl)amino)ethyl)acetamide]
IC50 [1]: > 100 µM
Inhibition rate at 12.5 μmol/L (%) [1]: Inactive

CCCSc1nc(NCCN)c2nnn(CCCc3ccccc3)c2n1 [Compound 14, N^1-(3-(3-Phenylpropyl)-5-(propylthio)-3H-[1,2,3]triazolo[4,5-d]pyrimidin-7-yl)ethane-1,2-diamine]
IC50 [1]: 27.6 ± 2.2 µM

NCCNc1nc(SCc2ccccc2)nc2c1nnn2Cc1ccc(Cl)cc1 [Compound 22, N^1-(5-(Benzylthio)-3-(4-chlorobenzyl)-3H-[1,2,3]triazolo[4,5-d]pyrimidin-7-yl)ethane-1,2-diamine]
IC50 [1]: 23.3 ± 0.59 µM
inhibition at 12.5 µM [1]: 45%

CCCSc1nc(NCCN)c2nnn(Cc3ccc(O)cc3)c2n1 [Compound 16, 4-((7-((2-Aminoethyl)amino)-5-(propylthio)-3H-[1,2,3]triazolo[4,5-d]pyrimidin-3-yl)methyl)phenol]
IC50 [1]: 28.7 ± 1.36 µM
inhibition at 12.5 µM [1]: 36.2%

CCCSc1nc(N2CCNCC2)c2nnn(Cc3ccccc3)c2n1 [Compound 7, 3-Benzyl-7-(piperazin-1-yl)-5-(propylthio)-3H-[1,2,3]triazolo[4,5-d]pyrimidine]
IC50 [1]: 10.2 ± 1.3 µM
inhibition at 12.5 µM [1]: 50%

N#CSc1cc(SC#N)c(N)nc1N [PR-619]
EC50 [2]: ~8 µM

CCCSc1nc(NCCN)c2nnn(Cc3ccccc3)c2n1 [Compound 8, N^1-(3-benzyl-5-(propylthio)-3H-[1,2,3]triazolo[4,5-d]pyrimidin-7-yl)ethane-1,2-diamine]
Kd [3]: 90 nM
IC50 [1]: 4.34 ± 0.3 µM
inhibition at 12.5 µM [1]: 80%

CCCSc1nc(NCCNC(=O)OC(C)(C)C)c2nnn(Cc3ccccc3)c2n1 [Compound 9, Tert-butyl(2-((3-benzyl-5-(propylthio)-3H-[1,2,3]triazolo[4,5-d]pyrimidin-7-yl)amino)ethyl)carbamate]
IC50 [1]: > 100 µM
Inhibition rate at 12.5 μmol/L (%) [1]: Inactive

CCCSc1nc(NCCN)c2nnn(CCc3c[nH]c4ccccc34)c2n1 [Compound 15, N^1-(3-(2-(1H-Indol-3-yl)ethyl)-5-(propylthio)-3H-[1,2,3]triazolo[4,5-d]pyrimidin-7-yl)ethane-1,2-diamine]
IC50 [1]: 24.8 ± 0.58 µM
inhibition at 12.5 µM [1]: 34%

CCCSc1nc(NCc2cccnc2)c2nnn(Cc3ccccc3)c2n1 [Compound 6, 3-Benzyl-5-(propylthio)-N-(pyridin-3-ylmethyl)-3H-[1,2,3]triazolo[4,5-d]pyrimidin-7-amine]
IC50 [1]: 20.5 ± 1.45 µM
inhibition at 12.5 µM [1]: 23.1%

CCCSc1nc(NCCN(C)C)c2nnn(Cc3ccccc3)c2n1 [Compound 10, N^1-(3-Benzyl-5-(propylthio)-3H-[1,2,3]triazolo[4,5-d]pyrimidin-7-yl)-N^2,N^2-dimethylethane-1,2-diamine]
IC50 [1]: > 100 µM
Inhibition rate at 12.5 μmol/L (%) [1]: Inactive

CCCSc1nc(NCCN)c2nnn(CCO)c2n1 [Compound 12, 2-(7-((2-Aminoethyl)amino)-5-(propylthio)-3H-[1,2,3]triazolo[4,5-d]pyrimidin-3-yl)ethan-1-ol]
Binding to USP28 (in words) ([3]; BLI): failed to bind
IC50 [4]: > 50 µM
IC50 [5]: > 100 µM
IC50 [1]: > 100 µM
Inhibition rate at 12.5 μmol/L (%) [1]: Inactive
IC50 [6]: > 100 µM
IC50 [7]: > 50 µM
protein levels of USP28, LSD1 and total c-Myc [8]: remained unchanged

NCCNc1ncnc2c1nnn2Cc1ccc(Cl)cc1 [Compound 21, N^1-(3-(4-Chlorobenzyl)-3H-[1,2,3]triazolo[4,5-d]pyrimidin-7-yl)ethane-1,2-diamine]
IC50 [1]: 12.3 ± 0.27 µM
inhibition at 12.5 µM [1]: 62.2%

CCCSc1nc(NCCN)c2nnn(CCNC(=O)OC(C)(C)C)c2n1 [Compound 13, Tert-butyl(2-(7-((2-aminoethyl)amino)-5-(propylthio)-3H-[1,2,3]triazolo[4,5-d]pyrimidin-3-yl)ethyl)carbamate]
IC50 [1]: > 100 µM
Inhibition rate at 12.5 μmol/L (%) [1]: Inactive

Cc1nc(NCCN)c2nnn(Cc3ccc(Cl)cc3)c2n1 [Compound 23, N^1-(3-(4-Chlorobenzyl)-5-methyl-3H-[1,2,3]triazolo[4,5-d]pyrimidin-7-yl)ethane-1,2-diamine]
IC50 [1]: 34.8 ± 1.27 µM
inhibition at 12.5 µM [1]: 35%

CCCSc1nc(NCCNC)c2nnn(Cc3ccccc3)c2n1 [Compound 11, N^1-(3-Benzyl-5-(propylthio)-3H-[1,2,3]triazolo[4,5-d]pyrimidin-7-yl)-N^2-methylethane-1,2-diamine]
IC50 [1]: 8.55 ± 0.87 µM
inhibition at 12.5 µM [1]: 61.7%

C#CCSc1nc(NCCN)c2nnn(Cc3ccc(Cl)cc3)c2n1 [Compound 24, N^1-(3-(4-Chlorobenzyl)-5-(prop-2-yn-1-ylthio)-3H-[1,2,3]triazolo[4,5-d]pyrimidin-7-yl)ethane-1,2-diamine]
IC50 [1]: 14.5 ± 0.19 µM
inhibition at 12.5 µM [1]: 59.9%

CCCSc1nc(NCCN)c2nnn(Cc3ccccc3Cl)c2n1 [Compound 17, N^1-(3-(2-Chlorobenzyl)-5-(propylthio)-3H-[1,2,3]triazolo[4,5-d]pyrimidin-7-yl)ethane-1,2-diamine]
IC50 [1]: 13.21 ± 0.03 µM
inhibition at 12.5 µM [1]: 56%

CCCSc1nc(NC2CC2)c2nnn(Cc3ccccc3)c2n1 [Compound 3, 3-Benzyl-N-cyclopropyl-5-(propylthio)-3H-[1,2,3]triazolo[4,5-d]pyrimidin-7-amine]
IC50 [1]: > 100 µM
Inhibition rate at 12.5 μmol/L (%) [1]: Inactive

CCCSc1nc(NCc2ccco2)c2nnn(Cc3ccccc3)c2n1 [Compound 5, 3-Benzyl-N-(furan-2-ylmethyl)-5-(propylthio)-3H-[1,2,3]triazolo[4,5-d]pyrimidin-7-amine]
IC50 ([1]; read-out: IC50 against USP28, Ub-AMC 100 nmol/L, USP28 62.5 nmol/L): 14.2 ± 0.19 µM
inhibition at 12.5 µM [1]: 45.6%

CCCSc1nc(NCCCN2CCOCC2)c2nnn(Cc3ccccc3)c2n1 [Compound 4, 3-Benzyl-N-(3-morpholinopropyl)-5-(propylthio)-3H-[1,2,3]triazolo[4,5-d]pyrimidin-7-amine]
IC50 [1]: > 100 µM
Inhibition rate at 12.5 μmol/L (%) [1]: Inactive
